Assay results published in patent US20190309272A1, “Genetically Modified Cell Lines Including a TP53 Modification and Methods of Use” (UNIVERSITY OF SOUTH CAROLINA, priority 2018, published 2019).
Counter-ions that a name gives are not always drawn. Like-named read-outs stand apart in the source and are kept apart here.

How the values were obtained:
Type in all cases: cell-based, Human
MCF7 TP53 KO 3.4 pool = test: Drug screening, resazurin, TP53 KO 3.4 pool
MCF7 TP53 KO 5.6 pool = test: Drug screening, resazurin, TP53 KO 5.6 pool
MCF7 WT Parental pool = test: Drug screening, resazurin, MCF7 wild type parental pool
[1] = ten-day drug treatment, 156.25 nM to 10 μM, resazurin fluorescence

Compound: Cn1c(CCCC(=O)O)nc2cc(N(CCCl)CCCl)ccc21 [Bendamustine Hydrochloride]
- TP53 KO 3.4 pool (AUC) (MCF7 TP53 KO 3.4 pool): 9.503
- TP53 KO 5.6 pool (AUC) (MCF7 TP53 KO 5.6 pool): 10.23
- MCF7 WT Parental pool (AUC) (MCF7 WT Parental pool): 9.021

Compound: S=c1nc[nH]c2nc[nH]c12 [Mercaptopurine]
- TP53 KO 3.4 pool (AUC) (MCF7 TP53 KO 3.4 pool; [1]): 5.941
- TP53 KO 5.6 pool (AUC) (MCF7 TP53 KO 5.6 pool; [1]): 5.636
- MCF7 WT Parental pool (AUC) (MCF7 WT Parental pool; [1]): 6.103

Compound: Nc1ccn([C@@H]2O[C@H](CO)[C@@H](O)[C@@H]2O)c(=O)n1 [Cytarabine Hydrochloride]
- MCF7 WT Parental pool (AUC) (MCF7 WT Parental pool; [1]): 4.771

Compound: Nc1nc(F)nc2c1ncn2[C@@H]1O[C@H](COP(=O)(O)O)[C@@H](O)[C@@H]1O [FludarabinePhosphate]
- TP53 KO 3.4 pool (AUC) (MCF7 TP53 KO 3.4 pool; [1]): 8.135
- TP53 KO 5.6 pool (AUC) (MCF7 TP53 KO 5.6 pool; [1]): 7.936
- MCF7 WT Parental pool (AUC) (MCF7 WT Parental pool; [1]): 8.551

Compound: CC[C@H](Nc1ncnc2[nH]cnc12)c1nc2cccc(F)c2c(=O)n1-c1ccccc1 [Idelalisib]
- TP53 KO 3.4 pool (AUC) (MCF7 TP53 KO 3.4 pool; [1]): 7.039
- TP53 KO 5.6 pool (AUC) (MCF7 TP53 KO 5.6 pool; [1]): 7.03
- MCF7 WT Parental pool (AUC) (MCF7 WT Parental pool; [1]): 7.566

Compound: CO[C@H]1C[C@@H]2CC[C@@H](C)[C@@](O)(O2)C(=O)C(=O)N2CCCC[C@H]2C(=O)O[C@H]([C@H](C)C[C@@H]2CC[C@@H](OCCO)[C@H](OC)C2)CC(=O)[C@H](C)/C=C(\C)[C@@H](O)[C@@H](OC)C(=O)[C@H](C)C[C@H](C)/C=C/C=C/C=C/1C [Everolimus]
- TP53 KO 3.4 pool (AUC) (MCF7 TP53 KO 3.4 pool; [1]): 2.251
- TP53 KO 5.6 pool (AUC) (MCF7 TP53 KO 5.6 pool; [1]): 3.834
- MCF7 WT Parental pool (AUC) (MCF7 WT Parental pool; [1]): 4.699

Compound: CC(C)C[C@H](NC(=O)[C@H](Cc1ccccc1)NC(=O)c1cnccn1)B(O)O [Bortezomib]
- TP53 KO 3.4 pool (AUC) (MCF7 TP53 KO 3.4 pool; [1]): 0.673
- TP53 KO 5.6 pool (AUC) (MCF7 TP53 KO 5.6 pool; [1]): 0.7486
- MCF7 WT Parental pool (AUC) (MCF7 WT Parental pool; [1]): 0.6974

Compound: Cc1c(C(=O)Nc2ccc(N3C[C@@H](C)O[C@@H](C)C3)nc2)cccc1-c1ccc(OC(F)(F)F)cc1 [Erismodgib]
- TP53 KO 3.4 pool (AUC) (MCF7 TP53 KO 3.4 pool; [1]): 6.922
- TP53 KO 5.6 pool (AUC) (MCF7 TP53 KO 5.6 pool; [1]): 7.491
- MCF7 WT Parental pool (AUC) (MCF7 WT Parental pool; [1]): 7.435

Compound: Cc1[nH]c2ccccc2c1CCNCc1ccc(/C=C/C(=O)NO)cc1 [Panobinostat]
- TP53 KO 3.4 pool (AUC) (MCF7 TP53 KO 3.4 pool; [1]): 0.5862
- TP53 KO 5.6 pool (AUC) (MCF7 TP53 KO 5.6 pool; [1]): 0.5971
- MCF7 WT Parental pool (AUC) (MCF7 WT Parental pool; [1]): 0.6418

Compound: COc1nc(N)nc2c1ncn2[C@@H]1O[C@H](CO)[C@@H](O)[C@@H]1O [Nelarabine]
- TP53 KO 3.4 pool (AUC) (MCF7 TP53 KO 3.4 pool; [1]): 11.04
- TP53 KO 5.6 pool (AUC) (MCF7 TP53 KO 5.6 pool; [1]): 10.08
- MCF7 WT Parental pool (AUC) (MCF7 WT Parental pool; [1]): 8.659

Compound: CO[C@H]1C[C@@H]2CC[C@@H](C)[C@@](O)(O2)C(=O)C(=O)N2CCCC[C@H]2C(=O)O[C@H]([C@H](C)C[C@@H]2CC[C@@H](O)[C@H](OC)C2)CC(=O)[C@H](C)/C=C(\C)[C@@H](O)[C@@H](OC)C(=O)[C@H](C)C[C@H](C)/C=C/C=C/C=C/1C [Sirolimus]
- TP53 KO 3.4 pool (AUC) (MCF7 TP53 KO 3.4 pool; [1]): 2.623
- TP53 KO 5.6 pool (AUC) (MCF7 TP53 KO 5.6 pool; [1]): 3.106
- MCF7 WT Parental pool (AUC) (MCF7 WT Parental pool; [1]): 2.534

Compound: CC(=O)[C@]1(O)Cc2c(O)c3c(c(O)c2[C@@H](O[C@H]2C[C@H](N)[C@H](O)[C@H](C)O2)C1)C(=O)c1ccccc1C3=O [Idarubicin Hydrochloride]
- MCF7 WT Parental pool (AUC) (MCF7 WT Parental pool; [1]): 0.958

Compound: C=CC(=O)N1CCC[C@@H](n2nc(-c3ccc(Oc4ccccc4)cc3)c3c(N)ncnc32)C1 [Ibrutinib]
- TP53 KO 3.4 pool (AUC) (MCF7 TP53 KO 3.4 pool; [1]): 5.166
- TP53 KO 5.6 pool (AUC) (MCF7 TP53 KO 5.6 pool; [1]): 5.711
- MCF7 WT Parental pool (AUC) (MCF7 WT Parental pool; [1]): 6.35

Compound: O=C(O)CCCc1ccc(N(CCCl)CCCl)cc1 [Chlorambucil]
- TP53 KO 3.4 pool (AUC) (MCF7 TP53 KO 3.4 pool; [1]): 16.5
- TP53 KO 5.6 pool (AUC) (MCF7 TP53 KO 5.6 pool; [1]): 17.6
- MCF7 WT Parental pool (AUC) (MCF7 WT Parental pool; [1]): 16.08

Compound: CS(=O)(=O)c1ccc(C(=O)Nc2ccc(Cl)c(-c3ccccn3)c2)c(Cl)c1 [Vismodegib]
- TP53 KO 3.4 pool (AUC) (MCF7 TP53 KO 3.4 pool; [1]): 8.017
- TP53 KO 5.6 pool (AUC) (MCF7 TP53 KO 5.6 pool; [1]): 8.363
- MCF7 WT Parental pool (AUC) (MCF7 WT Parental pool; [1]): 8.801

Compound: Cc1cn(-c2cc(NC(=O)c3ccc(C)c(Nc4nccc(-c5cccnc5)n4)c3)cc(C(F)(F)F)c2)cn1 [Nilotinib]
- TP53 KO 3.4 pool (AUC) (MCF7 TP53 KO 3.4 pool; [1]): 6.967
- TP53 KO 5.6 pool (AUC) (MCF7 TP53 KO 5.6 pool; [1]): 4.891
- MCF7 WT Parental pool (AUC) (MCF7 WT Parental pool; [1]): 5.834

Compound: Nc1nc2[nH]cc(CCc3ccc(C(=O)N[C@@H](CCC(=O)O)C(=O)O)cc3)c2c(=O)[nH]1 [Pemetrexed Disodium Salt Heptahydrate]
- TP53 KO 3.4 pool (AUC) (MCF7 TP53 KO 3.4 pool; [1]): 2.438
- TP53 KO 5.6 pool (AUC) (MCF7 TP53 KO 5.6 pool; [1]): 2.852
- MCF7 WT Parental pool (AUC) (MCF7 WT Parental pool; [1]): 2.501

Compound: CN(C)C/C=C/C(=O)Nc1cc2c(Nc3ccc(F)c(Cl)c3)ncnc2cc1O[C@H]1CCOC1 [Afatanib]
- TP53 KO 3.4 pool (AUC) (MCF7 TP53 KO 3.4 pool; [1]): 2.48
- TP53 KO 5.6 pool (AUC) (MCF7 TP53 KO 5.6 pool; [1]): 2.139
- MCF7 WT Parental pool (AUC) (MCF7 WT Parental pool; [1]): 2.734

Compound: CO[C@@]12[C@H](COC(N)=O)C3=C(C(=O)C(C)=C(N)C3=O)N1C[C@@H]1N[C@@H]12 [Mitomycin]
- TP53 KO 3.4 pool (AUC) (MCF7 TP53 KO 3.4 pool; [1]): 1.003
- TP53 KO 5.6 pool (AUC) (MCF7 TP53 KO 5.6 pool; [1]): 0.912
- MCF7 WT Parental pool (AUC) (MCF7 WT Parental pool; [1]): 1.122

Compound: C/C=C1\NC(=O)[C@H]2CSSCC/C=C/[C@H](CC(=O)N[C@H](C(C)C)C(=O)N2)OC(=O)[C@H](C(C)C)NC1=O [Romidepsin]
- TP53 KO 3.4 pool (AUC) (MCF7 TP53 KO 3.4 pool): 0.6551
- TP53 KO 5.6 pool (AUC) (MCF7 TP53 KO 5.6 pool): 0.5264
- MCF7 WT Parental pool (AUC) (MCF7 WT Parental pool): 0.5862

Compound: N[C@@H](Cc1ccc(N(CCCl)CCCl)cc1)C(=O)O [Melphalan Hydrochloride]
- TP53 KO 3.4 pool (AUC) (MCF7 TP53 KO 3.4 pool; [1]): 6.158
- TP53 KO 5.6 pool (AUC) (MCF7 TP53 KO 5.6 pool; [1]): 5.95
- MCF7 WT Parental pool (AUC) (MCF7 WT Parental pool; [1]): 5.766

Compound: CC(=O)O[C@@]12CO[C@@H]1C[C@H](O)[C@@]1(C)C(=O)[C@H](O)C3=C(C)[C@@H](OC(=O)[C@H](O)[C@@H](NC(=O)OC(C)(C)C)c4ccccc4)C[C@@](O)([C@@H](OC(=O)c4ccccc4)[C@H]21)C3(C)C [Docetaxel]
- TP53 KO 3.4 pool (AUC) (MCF7 TP53 KO 3.4 pool; [1]): 1.639
- TP53 KO 5.6 pool (AUC) (MCF7 TP53 KO 5.6 pool; [1]): 1.663
- MCF7 WT Parental pool (AUC) (MCF7 WT Parental pool; [1]): 1.432

Compound: Nc1nc2nc[nH]c2c(=S)[nH]1 [Thioguanine]
- MCF7 WT Parental pool (AUC) (MCF7 WT Parental pool; [1]): 4.122

Compound: C=C1C[C@@H]2[C@H](CC[C@]3(C)C(=O)CC[C@@H]23)[C@@]2(C)C=CC(=O)C=C12 [Exemestane]
- MCF7 WT Parental pool (AUC) (MCF7 WT Parental pool; [1]): 8.564

Compound: CO[C@H]1C[C@@H]2CC[C@@H](C)[C@@](O)(O2)C(=O)C(=O)N2CCCC[C@H]2C(=O)O[C@H]([C@H](C)C[C@@H]2CC[C@@H](OC(=O)C(C)(CO)CO)[C@H](OC)C2)CC(=O)[C@H](C)/C=C(\C)[C@@H](O)[C@@H](OC)C(=O)[C@H](C)C[C@H](C)/C=C/C=C/C=C/1C [Temsirolimus]
- MCF7 WT Parental pool (AUC) (MCF7 WT Parental pool; [1]): 2.486

Compound: OC[C@H]1O[C@@H](n2cnc3c2NC=NC[C@H]3O)C[C@@H]1O [Pentostatin]
- MCF7 WT Parental pool (AUC) (MCF7 WT Parental pool; [1]): 10.31

Compound: Dabrafenib Mesylate
- TP53 KO 3.4 pool (AUC) (MCF7 TP53 KO 3.4 pool; [1]): 14.73
- MCF7 WT Parental pool (AUC) (MCF7 WT Parental pool; [1]): 14.9

Compound: CNC(=O)c1cc(Oc2ccc(NC(=O)Nc3ccc(Cl)c(C(F)(F)F)c3)cc2)ccn1 [Sorafenib]
- MCF7 WT Parental pool (AUC) (MCF7 WT Parental pool; [1]): 3.981

Compound: O=C1c2c(O)ccc(O)c2C(=O)c2c(NCCNCCO)ccc(NCCNCCO)c21 [Mitoxantrone]
- MCF7 WT Parental pool (AUC) (MCF7 WT Parental pool; [1]): 2.338
